The results in this text go back to patent publication US7332501B2, “Indol-3-yl-carbonyl-spiro-piperidine derivatives as V1a receptor antagonists” (Hoffmann-La Roche Inc., priority 2005, dated 2008).

The structures appear in SMILES notation.

The experiment deals with T1, human V1a receptor (Homo sapiens, UniProt P37288).
T1 construct: expressed in transfected cells; host or cells: HEK293 cells, transiently transfected; cell membranes
T1 sequence (P37288 whole entry): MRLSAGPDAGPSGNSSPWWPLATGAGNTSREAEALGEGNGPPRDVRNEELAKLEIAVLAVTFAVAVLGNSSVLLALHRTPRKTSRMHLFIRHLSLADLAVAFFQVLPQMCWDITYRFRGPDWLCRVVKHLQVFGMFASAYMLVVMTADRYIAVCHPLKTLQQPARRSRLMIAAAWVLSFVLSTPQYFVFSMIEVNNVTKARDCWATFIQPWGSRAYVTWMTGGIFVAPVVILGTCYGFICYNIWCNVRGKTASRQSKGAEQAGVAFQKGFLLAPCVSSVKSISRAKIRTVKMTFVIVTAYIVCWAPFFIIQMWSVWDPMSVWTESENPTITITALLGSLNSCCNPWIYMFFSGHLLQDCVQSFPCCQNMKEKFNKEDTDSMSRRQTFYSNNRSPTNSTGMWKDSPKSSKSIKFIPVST
Nature of the experiment: human V1a receptor binding (3H-Vasopressin SPA, HEK293 membranes). The conditions noted are these: displacement of 4 nM 3H-Vasopressin, membranes of HEK293 cells transiently transfected with human V1a receptor; Ki from IC50 by Cheng-Prussoff. The method, boiled down: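 Transiently transfected HEK293 membranes on yttrium silicate SPA beads in Tris binding buffer (120 mM NaCl, 5 mM KCl, 2 mM CaCl2, 10 mM MgCl2). 3H-vasopressin added as 4 nM working solution; excess cold vasopressin set non-specific binding. 1 h at room temperature, then counting; Ki from fitted IC50 via Cheng-Prusoff.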
Usually Ki stands for the dissociation constant of the complex between target and ligand, obtained from inhibition or displacement. `CS(=O)(=O)NCCn1cc(C(=O)N2CCC3(CC2)OCc2ccccc23)c2ccc(Cl)cc21` [Example 271, N-{2-[6-Chloro-3-(1′H,3H-spiro[2-benzofuran-1,4′-piperidin]-1′-ylcarbonyl)-1H-indol-1-yl]ethyl}methanesulfonamide]: affinity was put at a Ki of 1.5 nM.

The compound `CN(C)CCNC(=O)c1[nH]c2cc(Cl)ccc2c1C(=O)N1CCC2(CC1)OC(=O)c1cc(F)ccc12` [Example 26, 6-chloro-N-[2-(dimethylamino)ethyl]-3-[(5-fluoro-3-oxo-1′H,3H-spiro[2-benzofuran-1,4′-piperidin]-1′-yl)carbonyl]-1H-indole-2-carboxamide] displayed an inhibition constant Ki of 39.4 nM.

Consider `O=C(c1cn(CC2(F)COC2)c2cc(Cl)ccc12)N1CCC2(CC1)OCc1ccccc12` [Example 243, 1′-({6-Chloro-1-[(3-fluorooxetan-3-yl)methyl]-1H-indol-3-yl}carbonyl)-3H-spiro[2-benzofuran-1,4′-piperidine]], for which the affinity corresponds to a Ki of 1.4 nM.

With `O=C1OC2(CCN(C(=O)c3cn(CCC4CCOCC4)c4cc(Cl)ccc34)CC2)c2ccccc21` [Example 196, 1′-({6-Chloro-1-[2-(tetrahydro-2H-pyran-4-yl)ethyl]-1H-indol-3-yl}carbonyl)-3H-spiro[2-benzofuran-1,4′-piperidin]-3-one], the inhibitory constant (Ki) was determined as 1.4 nM.

The compound `CC(C)(C)OC(=O)N1CCOC(Cn2cc(C(=O)N3CCC4(CC3)OCc3ccccc34)c3ccc(Cl)cc32)C1` (centres unmarked) [Example 247, tert-Butyl 2-{[6-chloro-3-(1′H,3H-spiro[2-benzofuran-1,4′-piperidin]-1′-ylcarbonyl)-1H-indol-1-yl]methyl}morpholine-4-carboxylate] yielded a Ki of 2.3 nM.

Consider `Cc1c(C(=O)N2C[C@@H](C)[C@]3(OC(=O)c4ccccc43)[C@@H](C)C2)c2ccccc2n1Cc1ccccc1` [Example 281, (1R,3′R,5′S)-1′-[(1-Benzyl-2-methyl-1H-indol-3-yl)carbonyl]-3′,5′-dimethyl-3H-spiro[2-benzofuran-1,4′-piperidin]-3-one], for which the affinity corresponds to a Ki of 19.1 nM.

In the case of `O=C1OC2(CCN(C(=O)c3cn(-c4cc(F)cc(F)c4)c4cc(Cl)ccc34)CC2)c2ccccc21` [Example 127, 1′-{[6-Chloro-1-(3,5-difluorophenyl)-1H-indol-3-yl]carbonyl}-3H-spiro[2-benzofuran-1,4′-piperidin]-3-one], the affinity, expressed as Ki, was 3 nM.

In the case of `CN(CCNC(=O)c1[nH]c2cc(Cl)ccc2c1C(=O)N1CCC2(CC1)OC(=O)c1cc(F)ccc12)C(=O)OC(C)(C)C` [Example 30, tert-butyl {2-[({6-chloro-3-[(5-fluoro-3-oxo-1′H,3H-spiro[2-benzofuran-1,4′-piperidin]-1′-yl)carbonyl]-1H-indol-2-yl}carbonyl)amino]ethyl}methylcarbamate], the Ki was determined as 5.8 nM.

As to `CC(C)(C)OC(=O)Cn1cc(C(=O)N2CCC3(CC2)OCc2ccccc23)c2ccc(Cl)cc21` [Example 209, tert-Butyl[6-chloro-3-(1′H,3H-spiro[2-benzofuran-1,4′-piperidin]-1′-ylcarbonyl)-1H-indol-1-yl]acetate], affinity was put at a Ki of 1 nM.

`O=C1OC2(CCN(C(=O)c3cn(-c4ccccc4-c4ccccc4)c4cc(Cl)ccc34)CC2)c2ccccc21` [Example 157, 1′-[(1-Biphenyl-2-yl-6-chloro-1H-indol-3-yl)carbonyl]-3H-spiro[2-benzofuran-1,4′-piperidin]-3-one]: the Ki was determined as 39.8 nM.

Consider `COC(=O)c1ccc(Cn2c(C)c(C(=O)N3CCC4(CC3)OCc3ccccc34)c3ccccc32)cc1` [Example 50, methyl 4-{[2-methyl-3-(1′H,3H-spiro[2-benzofuran-1,4′-piperidin]-1′-ylcarbonyl)-1H-indol-1-yl]methyl}benzoate], for which the affinity corresponds to a Ki of 10.6 nM.

As to `O=C(c1cn(-c2ccccn2)c2cc(Cl)ccc12)N1CCC2(CC1)OCc1ccccc12` [Example 227], the inhibitory constant (Ki) worked out at 3.8 nM.

With `O=C(c1cn(Cc2cc(F)cc(F)c2)c2cc(Cl)ccc12)N1CCC2(CC1)OCc1ccccc12` [Example 219], affinity was put at a Ki of 1.2 nM.

For `O=C1OC2(CCN(C(=O)c3cn(Cc4ccc(Cl)nc4)c4cc(Cl)ccc34)CC2)c2ccc(F)cc21` [Example 164, 1′-({6-Chloro-1-[(6-chloropyridin-3-yl)methyl]-1H-indol-3-yl}carbonyl)-5-fluoro-3H-spiro[2-benzofuran-1,4′-piperidin]-3-one], the inhibition constant (Ki) stood at 2.9 nM.

In turn, `Cc1cc(Cn2cc(C(=O)N3CCC4(CC3)OC(=O)c3cc(F)ccc34)c3ccc(Cl)cc32)on1` [Example 184, 1′-({6-Chloro-1-[(3-methylisoxazol-5-yl)methyl]-1H-indol-3-yl}carbonyl)-5-fluoro-3H-spiro[2-benzofuran-1,4′-piperidin]-3-one] displayed a Ki of 3.4 nM.

Compound `O=C1OC2(CCN(C(=O)c3c4n(c5cc(Cl)ccc35)CCNC4=O)CC2)c2ccc(F)cc21` [Example 176, 1′-[(7-Chloro-1-oxo-1,2,3,4-tetrahydropyrazino[1,2-a]indol-10-yl)carbonyl]-5-fluoro-3H-spiro[2-benzofuran-1,4′-piperidin]-3-one] came in with a Ki of 14.8 nM.

Compound `Cc1ncc(Cn2cc(C(=O)N3CCC4(CC3)OC(=O)c3cc(F)ccc34)c3ccc(Cl)cc32)c(N)n1` [Example 163, 1′-({1-[(4-Amino-2-methylpyrimidin-5-yl)methyl]-6-chloro-1H-indol-3-yl}carbonyl)-5-fluoro-3H-spiro[2-benzofuran-1,4′-piperidin]-3-one] came in with an inhibition constant (Ki) of 15.3 nM.

As for `Cc1c(C(=O)N2CCC3(CC2)OC(=O)c2cccc(Cl)c23)c2ccccc2n1Cc1ccccc1` [Example 14, 1′-[(1-benzyl-2-methyl-1H-indol-3-yl)carbonyl]-7-chloro-3H-spiro[2-benzofuran-1,4′-piperidin]-3-one], the affinity, expressed as Ki, was 11.2 nM.

As for `O=C1OC2(CCN(C(=O)c3c[nH]c4cc(Cl)ccc34)CC2)c2cc(Cl)ccc21` [Example 20, 6-chloro-1′-[(6-chloro-1H-indol-3-yl)carbonyl]-3H-spiro[2-benzofuran-1,4′-piperidin]-3-one], affinity was put at a Ki of 15.8 nM.

For the compound `O=C(c1cn(C(=O)N2CCCCC2)c2cc(Cl)ccc12)N1CCC2(CC1)OCc1ccccc12` [Example 208, 1′-{[6-Chloro-1-(piperidin-1-ylcarbonyl)-1H-indol-3-yl]carbonyl}-3H-spiro[2-benzofuran-1,4′-piperidine]], the inhibitory constant (Ki) turned out to be 2.6 nM.

For `Cc1cc(Cn2cc(C(=O)N3CCC4(CC3)OCc3ccccc34)c3ccc(Cl)cc32)ccn1` [Example 260, 1′-({6-Chloro-1-[(2-methylpyridin-4-yl)methyl]-1H-indol-3-yl}carbonyl)-3H-spiro[2-benzofuran-1,4′-piperidine]], the affinity corresponds to a Ki of 2.8 nM.

Compound `O=C1OC2(CCN(C(=O)c3cn(Cc4cc(F)cc(F)c4)c4ccccc34)CC2)c2ccc(F)cc21` [Example 201, 1′-{[1-(3,5-Difluorobenzyl)-1H-indol-3-yl]carbonyl}-5-fluoro-3H-spiro[2-benzofuran-1,4′-piperidin]-3-one] gave an inhibitory constant (Ki) of 4.6 nM.

Take `Cc1cc(Cn2cc(C(=O)N3CCC4(CC3)OCc3ccccc34)c3ccc(Cl)cc32)on1` [Example 239, 1′-({6-Chloro-1-[(3-methylisoxazol-5-yl)methyl]-1H-indol-3-yl}carbonyl)-3H-spiro[2-benzofuran-1,4′-piperidine]]: the Ki amounted to 2.3 nM.

The compound `CN(C)C(=O)Cn1cc(C(=O)N2CCC3(CC2)CNc2ccccc23)c2ccc(Cl)cc21` [Example 100, 2-[6-Chloro-3-(1,2-dihydro-1′H-spiro[indole-3,4′-piperidin]-1′-ylcarbonyl)-1H-indol-1-yl]-N,N-dimethylacetamide] showed a Ki of 3.4 nM.

The compound `O=C(c1cn(Cc2ccccn2)c2cc(Cl)ccc12)N1CCC2(CC1)OCc1ccccc12` [Example 231, 1′-{[6-Chloro-1-(pyridin-2-ylmethyl)-1H-indol-3-yl]carbonyl}-3H-spiro[2-benzofuran-1,4′-piperidine]] had a Ki of 1.6 nM.

`CC(C)(C)OC(=O)N1CCOC(Cn2cc(C(=O)N3CCC4(CC3)OC(=O)c3cc(F)ccc34)c3ccc(Cl)cc32)C1` (centres unmarked) [Example 199, tert-Butyl 2-({6-chloro-3-[(5-fluoro-3-oxo-1′H,3H-spiro[2-benzofuran-1,4′-piperidin]-1′-yl)carbonyl]-1H-indol-1-yl}methyl)morpholine-4-carboxylate] showed an inhibitory constant (Ki) of 3.3 nM.

In the case of `O=C(c1cn(Cc2cccnc2)c2cc(Cl)ccc12)N1CCC2(CC1)OCc1ccccc12` [Example 230, 1′-{[6-Chloro-1-(pyridin-3-ylmethyl)-1H-indol-3-yl]carbonyl}-3H-spiro[2-benzofuran-1,4′-piperidine]], the Ki came to 1.7 nM.

As for `Cc1nc(Cn2cc(C(=O)N3CCC4(CC3)OCc3ccccc34)c3ccc(Cl)cc32)c(C)o1` [Example 242], the Ki stood at 2.2 nM.

The compound `CN1CCn2c(c(C(=O)N3CCC4(CC3)OCc3ccccc34)c3ccccc32)C1` [Example 276, 1′-[(2-Methyl-1,2,3,4-tetrahydropyrazino[1,2-a]indol-10-yl)carbonyl]-3H-spiro[2-benzofuran-1,4′-piperidine]] gave a Ki of 12 nM.

The compound `Cc1c(C(=O)N2CCC3(CC2)OC(=O)c2ccccc23)c2ccccc2n1Cc1ccccc1` [Example 126, 1′-[(1-Benzyl-2-methyl-1H-indol-3-yl)carbonyl]-3H-spiro[2-benzofuran-1,4′-piperidin]-3-one] registered a Ki of 3 nM.

Regarding `Cc1nc(Cn2cc(C(=O)N3CCC4(CC3)OCc3ccccc34)c3ccc(Cl)cc32)c(C2CC2)o1` [Example 237], the inhibitory constant (Ki) is 4 nM.

`CN(C)CCn1cc(C(=O)N2CCC3(CC2)COc2ccccc23)c2ccc(Cl)cc21` [Example 81, 2-[6-chloro-3-(1′H-spiro[1-benzofuran-3,4′-piperidin]-1′-ylcarbonyl)-1H-indol-1-yl]-N,N-dimethylethanamine] registered an inhibitory constant (Ki) of 5 nM.
